Measured values published in ChEMBL document CHEMBL5210121, “Affinity On-target Cellular Literature for EUbOPEN Chemogenomics Library wave 3” (2023).
Values belong to the compound of their own block, whether it stands above or below them.

Experiments:
[1] = target: Protein ENL (Homo sapiens, UniProt Q03111); assay: Affinity On-target Cellular interaction (NanoBRET assay (HEK293T cells)) EUB0000283b MLLT1; set-up: mode of action Inhibitor, recommended concentration 1 uM
[2] = target: Cytochrome P450 11B2, mitochondrial (Homo sapiens, UniProt P19099); assay: Affinity On-target Cellular interaction (HTRF-based assay (V79 cell lines, CisBio)) EUB0000733a CYP11B2; set-up: mode of action Negative control for MSD-CYP11B2, recommended concentration 100 nM
Sequence of Cytochrome P450 11B2, mitochondrial (P19099 whole entry): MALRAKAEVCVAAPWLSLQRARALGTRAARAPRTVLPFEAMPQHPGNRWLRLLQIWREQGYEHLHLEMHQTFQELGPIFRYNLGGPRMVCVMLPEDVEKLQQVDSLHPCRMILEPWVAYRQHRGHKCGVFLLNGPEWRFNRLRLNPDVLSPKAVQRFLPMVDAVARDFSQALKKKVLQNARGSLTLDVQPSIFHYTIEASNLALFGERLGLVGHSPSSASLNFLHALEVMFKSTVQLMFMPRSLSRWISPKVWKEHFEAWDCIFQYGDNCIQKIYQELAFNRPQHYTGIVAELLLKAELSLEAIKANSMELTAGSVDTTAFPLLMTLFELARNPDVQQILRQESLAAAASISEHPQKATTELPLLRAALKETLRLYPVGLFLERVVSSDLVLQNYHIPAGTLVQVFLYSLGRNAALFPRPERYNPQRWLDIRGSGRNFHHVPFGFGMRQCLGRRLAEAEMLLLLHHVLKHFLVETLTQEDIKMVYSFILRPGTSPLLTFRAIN

[3] = Affinity On-target Cellular interaction (Cell-based assay) EUB0000315b MGAT2
[4] = target: T1, NADH dehydrogenase [ubiquinone] iron-sulfur protein 2, mitochondrial (Homo sapiens, UniProt O75306); assay: Affinity On-target Cellular interaction (Cellular activity assay (measurement of ATP levels in presence of complex II substrate succinate in H1299 cells)) EUB0000748a NDUFS2; type: cell-based; set-up: mode of action Negative control for BAY-179, recommended concentration 1 uM
T1 sequence (O75306 whole entry): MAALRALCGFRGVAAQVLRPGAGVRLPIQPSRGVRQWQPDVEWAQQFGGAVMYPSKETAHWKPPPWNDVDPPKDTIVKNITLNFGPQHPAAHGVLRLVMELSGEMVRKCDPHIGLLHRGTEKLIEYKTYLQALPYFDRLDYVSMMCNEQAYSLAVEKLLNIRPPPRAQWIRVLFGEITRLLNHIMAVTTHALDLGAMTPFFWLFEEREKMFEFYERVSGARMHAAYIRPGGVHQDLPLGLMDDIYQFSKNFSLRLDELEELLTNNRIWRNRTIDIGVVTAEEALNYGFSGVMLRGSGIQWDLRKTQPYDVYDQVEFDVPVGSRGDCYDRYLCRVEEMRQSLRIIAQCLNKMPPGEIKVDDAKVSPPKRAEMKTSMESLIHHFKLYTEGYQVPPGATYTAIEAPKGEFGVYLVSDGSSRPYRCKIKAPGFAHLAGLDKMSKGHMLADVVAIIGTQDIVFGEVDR

[5] = target: Protein farnesyltransferase subunit beta (Homo sapiens, UniProt P49356); assay: Affinity On-target Cellular interaction (Western Blot (inhibition of Ras in NIH 3T3 H-Ras cells)) EUB0000289c FNTB; type: cell-based; set-up: mode of action Inhibitor, recommended concentration 1 uM
Sequence of Protein farnesyltransferase subunit beta (P49356 whole entry): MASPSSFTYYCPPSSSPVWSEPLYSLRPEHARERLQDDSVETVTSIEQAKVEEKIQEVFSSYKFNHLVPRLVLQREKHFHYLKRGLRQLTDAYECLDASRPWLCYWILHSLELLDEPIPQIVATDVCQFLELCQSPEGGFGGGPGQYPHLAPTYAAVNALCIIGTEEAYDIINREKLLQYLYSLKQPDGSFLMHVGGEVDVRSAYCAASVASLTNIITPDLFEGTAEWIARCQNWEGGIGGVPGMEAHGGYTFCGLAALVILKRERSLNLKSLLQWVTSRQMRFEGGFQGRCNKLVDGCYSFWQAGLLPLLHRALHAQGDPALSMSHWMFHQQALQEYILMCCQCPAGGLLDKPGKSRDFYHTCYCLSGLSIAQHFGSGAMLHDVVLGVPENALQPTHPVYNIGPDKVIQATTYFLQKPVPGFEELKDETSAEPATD

[6] = target: T2, Protein AF-9 (Homo sapiens, UniProt P42568); assay: Affinity On-target Cellular interaction (NanoBRET assay (HEK293T cells)) EUB0000732a MLLT3; set-up: mode of action Negative control for PFI-6, recommended concentration 1 uM
T2 sequence (P42568 whole entry): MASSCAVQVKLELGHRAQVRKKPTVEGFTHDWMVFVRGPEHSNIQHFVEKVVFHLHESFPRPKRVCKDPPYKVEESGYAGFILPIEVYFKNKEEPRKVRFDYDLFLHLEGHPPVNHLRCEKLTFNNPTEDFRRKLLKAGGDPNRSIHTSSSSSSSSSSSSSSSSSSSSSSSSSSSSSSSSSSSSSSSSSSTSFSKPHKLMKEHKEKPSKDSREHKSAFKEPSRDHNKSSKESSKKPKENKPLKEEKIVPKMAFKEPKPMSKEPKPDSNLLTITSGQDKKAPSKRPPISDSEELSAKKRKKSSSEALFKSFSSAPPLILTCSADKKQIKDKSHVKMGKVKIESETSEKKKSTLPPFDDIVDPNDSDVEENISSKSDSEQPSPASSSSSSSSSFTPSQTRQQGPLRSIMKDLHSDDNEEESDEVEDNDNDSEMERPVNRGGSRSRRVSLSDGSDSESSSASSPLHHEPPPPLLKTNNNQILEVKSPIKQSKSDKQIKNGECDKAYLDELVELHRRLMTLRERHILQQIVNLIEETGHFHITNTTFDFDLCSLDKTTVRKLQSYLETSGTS

[7] = target: T1, NADH dehydrogenase [ubiquinone] iron-sulfur protein 2, mitochondrial; assay: Affinity On-target Cellular interaction (Cellular activity assay (measurement of ATP levels in presence of complex II substrate succinate in H1299 cells)) EUB0000752a NDUFS2; type: cell-based; set-up: mode of action Inhibitor, recommended concentration 1 uM
[8] = Affinity On-target Cellular interaction (Measles Virus Inhibition Assay) EUB0000745a DHODH
[9] = target: T2, Protein AF-9

Sequence of Protein ENL (Q03111 whole entry): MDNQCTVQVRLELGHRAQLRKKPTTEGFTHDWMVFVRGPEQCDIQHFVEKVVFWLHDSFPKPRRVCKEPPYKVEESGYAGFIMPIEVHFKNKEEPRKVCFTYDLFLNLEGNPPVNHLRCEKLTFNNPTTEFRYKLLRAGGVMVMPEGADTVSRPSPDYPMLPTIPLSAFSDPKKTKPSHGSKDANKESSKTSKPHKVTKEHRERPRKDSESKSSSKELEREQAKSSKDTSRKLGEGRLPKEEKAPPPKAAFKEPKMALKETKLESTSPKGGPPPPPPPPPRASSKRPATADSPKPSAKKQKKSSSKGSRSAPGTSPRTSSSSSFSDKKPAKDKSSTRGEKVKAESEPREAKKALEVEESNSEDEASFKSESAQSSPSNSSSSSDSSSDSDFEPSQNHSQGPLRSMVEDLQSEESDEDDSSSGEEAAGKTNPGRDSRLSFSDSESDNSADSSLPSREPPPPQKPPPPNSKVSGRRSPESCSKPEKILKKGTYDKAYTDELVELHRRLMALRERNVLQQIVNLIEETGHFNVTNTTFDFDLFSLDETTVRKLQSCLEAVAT

Compound: C[C@H]1CCCN1Cc1nc2cc(NC(=O)c3ccc4cnccc4c3)ccc2[nH]1
- IC50 [1]: 500 nM

Compound: Cn1cncc1[C@](O)(COc1ccc(C#N)cc1-c1ccc(OC(F)(F)F)cc1)c1ccc(C#N)cc1 [ABT-100]
- EC50 [5]: 0.73 nM

Compound: CN(C)C(=O)c1ccc(-c2cc(C(=O)N(C)C3CCCC3)no2)cc1O
- IC50 [6]: > 30000 nM

Compound: c1ccc2oc(-c3csc(C4CCN(Cc5nc6ncccc6[nH]5)CC4)n3)cc2c1
- IC50 [7]: 79 nM

Second part, the compound after the results:

- IC50 [2]: > 10000 nM
Compound: FC(F)(F)c1ccc2c(c1)nc(-c1cccnc1)n2C1CC1 [MSD-CYP11B2-Negative-control]

- IC50 [3]: 160 nM
Compound: Cn1nc(C(F)(F)F)cc1-c1cnc(N2CCc3cc(S(=O)(=O)Nc4c(F)cc(Cl)cc4F)cc(N4CCCC4=O)c32)nc1 [TP-020]

- IC50 [4]: > 30000 nM
Compound: Cn1c(-c2csc(C3CCN(CC4=NC5N=CC=CC5N4)CC3)n2)nc2ccccc21 (centres undefined) [BAY-070]

- IC50 [8]: 1200 nM
Compound: Cc1c(Oc2ccc(F)cc2)c(OC(C)C)nn1-c1ccc(C2CC2)cn1 [IPP/CNRS-A019]

- IC50 [9]: 760 nM
Compound: CN(C)C(=O)c1ccc(-c2cc(C(=O)N[C@@H]3CCc4ccccc43)no2)cc1O
